According to patent US11903951B2, “Nasal pharmaceutical compositions with a porous excipient” (M et P Pharma AG, priority 2016, dated 2024):

Assays:
[1] = Solubility of testosterone in different oils; type: physicochemical
[2] = Time for complete dissolving of the maximally soluble amount of testosterone in different oils; settings: vortex mixer and shaker at 1000 rpm
Experimental: The adsorption ability of the SYLOID® particles was investigated by mixing SYLOID® 244FP, XDP3050, and XDP6035 with castor oil, linalool, TRANSCUTOL®, and CAPRYOL™. The maximally soluble amount of testosterone (under the conditions tested) was dissolved in 2.5 g of each oil using a vortex mixer and shaker at 1000 rpm.

Work on `C[C@]12CC[C@H]3[C@@H](CCC4=CC(=O)CC[C@@]43C)[C@@H]1CC[C@@H]2O` [testosterone] yielded a Solubility from oil ([1]; CAPRYOL PGMC) of 6.0%, a Solubility from oil ([1]; TRANSCUTOL HP) of 6.5% and a Solubility from oil ([1]; linalool) of 12.5%. For the same molecule, the “Time of solubility (complete dissolving)” value ([2]; 0.10 g testosterone in 2.5 g castor oil) was over 300 min, the “Time of solubility (complete dissolving)” value ([2]; 0.15 g testosterone in 2.5 g CAPRYOL) was about 60 min and the “Time of solubility (complete dissolving)” value ([2]; 0.16 g testosterone in 2.5 g TRANSCUTOL) was about 5 min. The “Time of solubility (complete dissolving)” value ([2]; 0.31 g testosterone in 2.5 g linalool) was 15 to 20 min.
